Assay [1] has as its system LDLR gene expression. In words: Northern hybridization of RNA from the LDLR-luciferase knock-in HepG2 cell line. The assay is classed as cell-based, human. The settings on record: LDLR luciferase knock-in HepG2 cells. As to the method: The LDLR targeting construct was introduced into HepG2 cells by electroporation. Following recovery, the cells were maintained in media supplemented 1 mg/ml G418 and 2 uM gancyclovir for 3-4 weeks until individual colonies were observed. These […] isolated and propagated as individual cultures for further characterization. Individual clones were expanded into 24 well tissue culture plates, and genomic DNA was prepared and analyzed by restriction digestion and Southern hybridization. […] This clone was expanded for further characterization and use as a reporter cell line for LDLR gene expression. To determine whether the expression of luciferase gene is regulated as the same way as the endogenous LDLR gene, RNA was prepared and analyzed by Northern hybridization. […] The cholesterol-dependent regulation is the hallmark of LDLR gene expression. As indicated, the LDLR mRNA was regulated by in the presence or absence of cholesterol, albeit in this case the LDLR mRNA level was reduced to half due to the loss of one allele, which was replaced by the luciferase gene. The use of the luciferase knock-in cell line for LDLR gene expression was further validated by the luciferase activity, which was also regulated by cholesterol as predicted.

In assay [2] the test system is LDLR gene expression. In words: Luciferase activity of the LDLR-luciferase knock-in HepG2 cell line. Format: cell-based, human. The settings on record: LDLR luciferase knock-in HepG2 cells. The protocol: To determine whether the expression of luciferase gene is regulated as the same way as the endogenous LDLR gene, RNA was prepared and analyzed by Northern hybridization. […] The cholesterol-dependent regulation is the hallmark of LDLR gene expression. As indicated, the LDLR mRNA was regulated by in the presence or absence of cholesterol, albeit in this case the LDLR mRNA level was reduced to half due to the loss of one allele, which was replaced by the luciferase gene. The use of the luciferase knock-in cell line for LDLR gene expression was further validated by the luciferase activity, which was also regulated by cholesterol as predicted. • Aliquot 100 ul cell suspension (10^4–10^5 primary or cultured, differentiated cells) into each well of 96-well plate under sterile conditions • Add compound or extract to 10 uM final concentration • Incubate 6–18 hrs at 37° C. • Remove incubation media • Add 100 ul lysis/luciferin buffer containing 1.0% non-ionic detergent (Triton x-100), 530 uM ATP, 270 uM coA and 470 uM luciferin (Promega). • Measure luciferase-derived luminescence on automated Torcon AML-34 and 7710 Microplate Luminometer (Cambridge Technologies, Inc.) luminometers.

Each structure is given as a SMILES string.

Regarding `C[C@H](CCCC(C)(C)O)[C@H]1CC[C@H]2[C@@H]3CC=C4C[C@@H](O)CC[C@]4(C)[C@H]3CC[C@]12C` [25-hydroxycholesterol], the “luciferase mRNA” value with LDLR gene expression [1] (compared with lipid-depleted media, where mRNA was elevated) is “suppressed”. Take `CC(C)CCC[C@@H](C)[C@H]1CC[C@H]2[C@@H]3CC=C4C[C@@H](O)CC[C@]4(C)[C@H]3CC[C@]12C` [cholesterol]: the luciferase activity entry in the assay with LDLR gene expression [2] is “regulated”. For the same molecule, in the assay on LDLR gene expression [1] (presence or absence of cholesterol), the “LDLR mRNA” value is “regulated”.

These data come from US7105313B2, “Cell-based drug screens for regulators of gene expression” (Amgen Inc., priority 1996, dated 2006).
